{
  "source": "patent US20150141439A1",
  "about": "“PHARMACEUTICAL COMPOSITION FOR THE PREVENTION OR TREATMENT OF BRAIN TUMOR OR TEMODAL RESISTANT GLIOBLASTOMA MULTIFORM COMPRISING AZATHIOPRINE AS AN ACTIVE INGREDIENT” (KOREA RESEARCH INSTITUTE OF CHEMICAL TECHNOLOGY, priority 2012, published 2015)",
  "key": {"[1]": {"system": "GBM #2 glioblastoma multiform patient originated cells", "experiment": "Neurosphere formation inhibition, GBM #2", "type": "cell-based, human", "design": "key: S: strong effect; I: intermediate effect; R: rare effect", "details": "GBM #2, type A (proneural), Azathioprine 1 μM, duration 15 day", "procedure": "Particularly, to investigate neurosphere formation, glioblastoma multiform cells were cultured for a certain time and the cells were distributed again in culture vessels, followed by additional culture. Then, the number of newly generated neurospheres was measured. First, the glioblastoma multiform patient originated cells were sub-cultured, which were distributed in a 96-well plate (20, 50, and 200 cells in 50 μl of culture medium/well). […] Then, the compound of formula 1 (azathioprine) and the compound of Comparative Example 1 (Temodal) were added to 50 μl of cell culture medium with the same concentrations as the above once a week, which were then cultured for 7˜23 days. When neurosphere was formed at least 50 μm in the control group not treated with the compound, the number of neurospheres in each well was counted to compare the neurosphere formation before and after the treatment of the compound of formula 1 (azathioprine) and the compound of Comparative Example 1 (Temodal).\nThe glioblastoma multiform cells used in this experiment were classified into 4 types, which are type A, type B, type C, and type D, according to the gene expression pattern. Methylation of MGMT (O6-me-G methyltransferase), the DNA repair protein, was confirmed in each cell line. […]"}, "[2]": {"system": "GBM #6 glioblastoma multiform patient originated cells", "experiment": "Neurosphere formation inhibition, GBM #6", "type": "cell-based, human", "design": "key: S: strong effect; I: intermediate effect; R: rare effect", "details": "GBM #6, type B (classical), Azathioprine 1 μM, duration 23 day", "procedure": "(§1) Particularly, to investigate neurosphere formation, glioblastoma multiform cells were cultured for a certain time and the cells were distributed again in culture vessels, followed by additional culture. Then, the number of newly generated neurospheres was measured. First, the glioblastoma multiform patient originated cells were sub-cultured, which were distributed in a 96-well plate (20, 50, and 200 cells in 50 μl of culture medium/well). 2, 6, and 20 μM of the compound of formula 1 (azathioprine) and the compound of Comparative Example 1 (Temodal) were treated thereto by 50 μl per well to make the final concentrations of 1, 3, and 10 μM. Then, the compound of formula 1 (azathioprine) and the compound of Comparative Example 1 (Temodal) were added to 50 μl of cell culture medium with the same concentrations as the above once a week, which were then cultured for 7˜23 days. When neurosphere was formed at least 50 μm in the control group not treated with the compound, the number of neurospheres in each well was counted to compare the neurosphere formation before and after the treatment of the compound of formula 1 (azathioprine) and the compound of Comparative Example 1 (Temodal).\n(§2) The glioblastoma multiform cells used in this experiment were classified into 4 types, which are type A, type B, type C, and type D, according to the gene expression pattern. […]"}, "[3]": {"system": "GBM #8 glioblastoma multiform patient originated cells", "experiment": "Neurosphere formation inhibition, GBM #8", "type": "cell-based, human", "design": "key: S: strong effect; I: intermediate effect; R: rare effect", "details": "GBM #8, type C (mesenchymal), Azathioprine 1 μM, duration 15 day", "procedure": "as §1, §2"}, "[4]": {"system": "U2932 Human DLBCL (Diffuse large B-cell lymphoma)", "experiment": "Secondary cytotoxicity test, U2932", "type": "cell-based", "procedure": "(§3) Particularly, the cell growth inhibition effect was measured by WST-1 cell proliferation assay [http://www.roche-applied-science.com/PROD_INF/MANUALS/CELL_MAN/apoptosis—087—088.pdf]. The compound of formula 1 was loaded in a 384-well cell culture plate. Three types of glioblastoma multiform cell lines [proneural subtype (559T), mesenchymal subtype (592T), and classical subtype (626T)], normal human astrocytes (NHA), a lung cancer cell line (A549), and a glioblastoma multiform cell line (U87MG) were distributed in the plate at the density of 4.5×10^3 cells/well, and the medium was filled up to make 50 μl per well. At this time, the concentration of the solvent DMSO for the compound of formula 1 was no more than 0.2%. After culturing the cells for 72 hours, 5 mg/ml of WST-1 reagent was added by 5 μl per well, followed by reaction for 3˜4 hours. Then OD450 was measured to investigate the effect of the compound of formula 1 on cell proliferation.\n(§4) To investigate the cell growth inhibition effect of the compound of formula 1 of the present invention (azathioprine) in many different cell lines, secondary cytotoxicity test was performed with the cell lines listed in Table 5 by the same manner as described in Example 1."}, "[5]": {"system": "HepG2 Human hepatocarcinoma", "experiment": "Secondary cytotoxicity test, HepG2", "type": "cell-based", "procedure": "as §3, §4"}, "[6]": {"system": "MCF-7 Human breast adenocarcinoma", "experiment": "Secondary cytotoxicity test, MCF-7", "type": "cell-based", "details": "MCF7", "procedure": "as §3, §4"}, "[7]": {"system": "MKN45 Human stomach adenocarcinoma", "experiment": "Secondary cytotoxicity test, MKN45", "type": "cell-based", "details": "MKN-45", "procedure": "as §3, §4"}},
  "data": [
    {"molecule": "Cn1cnc([N+](=O)[O-])c1Sc1ncnc2nc[nH]c12", "note": "[Azathioprine, 6-(1-methyl-4-nitro-1H-imidazol-5-ylthio)-7H-purine]", "values": [
      {"measurement": "inhibition of neurosphere formation", "setting": "[1]", "result": "S"},
      {"measurement": "inhibition of neurosphere formation", "setting": "[2]", "result": "S"},
      {"measurement": "inhibition of neurosphere formation", "setting": "[3]", "result": "S"},
      {"measurement": "IC50", "setting": "[4]", "result": 4200, "unit": "nM"},
      {"measurement": "IC50", "setting": "[5]", "result": "> 10000", "unit": "nM"},
      {"measurement": "IC50", "setting": "[6]", "result": 2600, "unit": "nM"},
      {"measurement": "IC50", "setting": "[7]", "result": 1200, "unit": "nM"}
    ]}
  ]
}
